Key:
lambsquarters = assay: Test B preemergence/postemergence greenhouse plant response rating 0 to 10; format: in vivo, Chenopodium album; conditions: for Plant response rating, Lambsquarter: 0 to 10 scale
Procedure, shortened: (§1)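 Postemergence treatment of plants two to eighteen cm tall ran alongside preemergence treatment of planted seed, each using compound in a non-phytotoxic solvent.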

pigweed = assay: Test C preemergence/postemergence greenhouse plant response rating 0 to 100; format: in vivo, Amaranthusretroflexus; conditions: for Plant response rating Pigweed: 125 g/ha, 0 to 100 scale
From the text: (§2) The compounds evaluated in this test were formulated in a non-phytoxic solvent and applied to the soil surface before plant seedlings emerged (preemergence application), to water that covered the soil surface (flood application), and to plants that were in the one-to-four leaf stage (postemergence application). A sandy loam soil was used for the preemergence and postemergence tests, while a silt loam soil was used in the flood test. Water depth was approximately 2.5 cm for the flood test and was maintained at this level for the duration of the test. Plant species in the preemergence and postemergence tests consisted of barley (Hordeum vulgare), bedstraw (Galium aparine), blackgrass (Alopecurus myosuroides), chickweed (Stellaria media), corn (Zea mays), cotton (Gossypium hirsutum), crabgrass (Digitaria sanguinalis), downy brome (Bromus tectorum), giant foxtail (Setaria faberii), lambsquarters (Chenopodium album), morningglory (Ipomoea hederacea), pigweed ([…]), rape (Brassica napus), ryegrass (Lolium multiflorum), sorghum (Sorghum bicolor), soybean (Glycine max), speedwell (Veronica persica), sugar beet (Beta vulgaris), velvetleaf (Abutilon theophrasti), wheat (Triticum aestivum), wild buckwheat (Polygonum convolvulus), and wild oat (Avena fatua). All plant species were planted one day before application of the compound for the preemergence portion-of this test. Plantings of these species were adjusted to produce plants of appropriate size for the post-emergence portion of the test. […] All plant species were grown using normal greenhouse practices. Visual evaluations of injury expressed on treated plants, when compared to untreated controls, were recorded approximately fourteen to twenty one days after application of the test compound. […] A dash (-) response means no test result.

velvetleaf [1] = assay: as above; format: in vivo, Abutilon theophrasti; conditions: for Plant response rating, Velvetleaf: 125 g/ha, 0 to 100 scale
From the text: as §2

rice = assay: Test C flood test plant response rating 0 to 100; format: in vivo, Oryza sativa
From the text: as §2

crabgrass = assay: Test C preemergence/postemergence greenhouse plant response rating 0 to 100; format: in vivo, Digitaria sanguinalis; conditions: for Plant response rating, Crabgrass: 125 g/ha, 0 to 100 scale
From the text: as §2

velvetleaf [2] = assay: Test B preemergence/postemergence greenhouse plant response rating 0 to 10; format: in vivo, Abutilon theophrasti; conditions: for Plant response rating, Velvetleaf: 0 to 10 scale
Procedure, shortened: as §1

cotton = assay: Test C preemergence/postemergence greenhouse plant response rating 0 to 100; format: in vivo, Gossypium hirsutum; conditions: for Plant response rating, Cotton: 125 g/ha, 0 to 100 scale
From the text: as §2

barnyardgrass = assay: Test B preemergence/postemergence greenhouse plant response rating 0 to 10; format: in vivo, Echinochloa crus-galli; conditions: for Plant response rating, Barnyardgrass: 0 to 10 scale
Procedure, shortened: as §1

sorghum = assay: Test C preemergence/postemergence greenhouse plant response rating 0 to 100; format: in vivo, Sorghum bicolor; conditions: for Plant response rating, Sorghum: 125 g/ha, 0 to 100 scale
From the text: as §2

wild oat = assay: as above; format: in vivo, Avena fatua; conditions: for Plant response rating, Wild oat: 125 g/ha, 0 to 100 scale
From the text: as §2

sugar beet = assay: Test B preemergence/postemergence greenhouse plant response rating 0 to 10; format: in vivo, Beta vulgaris; conditions: for Plant response rating, Sugar beet: 0 to 10 scale
Procedure, shortened: as §1

giant foxtail = assay: as above; format: in vivo, Setaria faberii; conditions: for Plant response rating, Giant foxtail: 0 to 10 scale
Procedure, shortened: as §1

CCOCOc1cc(-c2nn3c(c2Cl)CCCC3)c(F)cc1Cl [Compound 59]
Plant response rating, Lambsquarter (lambsquarters; POSTEMERGENCE, Rate 50 g/ha): 10 | Plant response rating, Lambsquarter (lambsquarters; PREEMERGENCE, Rate 50 g/ha): 10 | Plant response rating (0 to 10 scale), Lambsquarter (lambsquarters; PREEMERGENCE, Rate 200 g/ha): 10 | Plant response rating, Lambsquarter (lambsquarters; Rate 200 g/ha, POSTEMERGENCE): 10 | Plant response rating Pigweed (pigweed; POSTEMERGENCE): 100 | Plant response rating (0 to 100), Pigweed (pigweed; POSTEMERGENCE, Rate 2 g/ha): 30 | Plant response rating Pigweed (pigweed; PREEMERGENCE): 100 | Plant response rating (0 to 100), Pigweed (pigweed; PREEMERGENCE, Rate 2 g/ha): 0 | Plant response rating (0 to 100), Pigweed (pigweed; Rate 8 g/ha, POSTEMERGENCE): 30 | Plant response rating (0 to 100), Pigweed (pigweed; Rate 8 g/ha, PREEMERGENCE): 100 | Plant response rating (0 to 100), Pigweed (pigweed; Rate 31 g/ha, POSTEMERGENCE): 100 | Plant response rating (0 to 100), Pigweed (pigweed; Rate 31 g/ha, PREEMERGENCE): 100 | Plant response rating, Velvetleaf (velvetleaf [1]; POSTEMERGENCE): 100 | Plant response rating (0 to 100), Velvetleaf (velvetleaf [1]; POSTEMERGENCE, Rate 2 g/ha): 50 | Plant response rating, Velvetleaf (velvetleaf [1]; PREEMERGENCE): 100 | Plant response rating (0 to 100), Velvetleaf (velvetleaf [1]; PREEMERGENCE, Rate 2 g/ha): 0 | Plant response rating (0 to 100), Velvetleaf (velvetleaf [1]; Rate 8 g/ha, POSTEMERGENCE): 70 | Plant response rating (0 to 100), Velvetleaf (velvetleaf [1]; Rate 8 g/ha, PREEMERGENCE): 40 | Plant response rating (0 to 100), Velvetleaf (velvetleaf [1]; Rate 31 g/ha, POSTEMERGENCE): 90 | Plant response rating (0 to 100), Velvetleaf (velvetleaf [1]; Rate 31 g/ha, PREEMERGENCE): 95 | Plant response rating (0 to 100), Rice Japonica (rice; POSTEMERGENCE section, flood test, Rate 2 g/ha): 0 | Plant response rating (0 to 100), Rice Japonica (rice; Rate 8 g/ha, under POSTEMERGENCE head (flood test species)): 0 | Plant response rating (0 to 100), Rice Japonica (rice; Rate 31 g/ha, under POSTEMERGENCE head (flood test species)): 0 | Plant response rating Rice Japonica (rice; flood test species listed under POSTEMERGENCE, 125 g/ha, 0 to 100 scale): 40 | Plant response rating, Crabgrass (crabgrass; POSTEMERGENCE): 70 | Plant response rating (0 to 100), Crabgrass (crabgrass; POSTEMERGENCE, Rate 2 g/ha): 10 | Plant response rating, Crabgrass (crabgrass; PREEMERGENCE): 90 | Plant response rating (0 to 100), Crabgrass (crabgrass; PREEMERGENCE, Rate 2 g/ha): 0 | Plant response rating (0 to 100), Crabgrass (crabgrass; Rate 8 g/ha, POSTEMERGENCE): 30 | Plant response rating (0 to 100), Crabgrass (crabgrass; Rate 8 g/ha, PREEMERGENCE): 0 | Plant response rating (0 to 100), Crabgrass (crabgrass; Rate 31 g/ha, POSTEMERGENCE): 40 | Plant response rating (0 to 100), Crabgrass (crabgrass; Rate 31 g/ha, PREEMERGENCE): 30 | Plant response rating, Velvetleaf (velvetleaf [2]; POSTEMERGENCE, Rate 50 g/ha): 8 | Plant response rating, Velvetleaf (velvetleaf [2]; PREEMERGENCE, Rate 50 g/ha): 10 | Plant response rating (0 to 10 scale), Velvetleaf (velvetleaf [2]; PREEMERGENCE, Rate 200 g/ha): 10 | Plant response rating, Velvetleaf (velvetleaf [2]; Rate 200 g/ha, POSTEMERGENCE): 10 | Plant response rating, Cotton (cotton; POSTEMERGENCE): 100 | Plant response rating (0 to 100), Cotton (cotton; POSTEMERGENCE, Rate 2 g/ha): 95 | Plant response rating, Cotton (cotton; PREEMERGENCE): 50 | Plant response rating (0 to 100), Cotton (cotton; PREEMERGENCE, Rate 2 g/ha): 0 | Plant response rating (0 to 100), Cotton (cotton; Rate 8 g/ha, POSTEMERGENCE): 100 | Plant response rating (0 to 100), Cotton (cotton; Rate 8 g/ha, PREEMERGENCE): 0 | Plant response rating (0 to 100), Cotton (cotton; Rate 31 g/ha, POSTEMERGENCE): 100 | Plant response rating (0 to 100), Cotton (cotton; Rate 31 g/ha, PREEMERGENCE): 10 | Plant response rating, Barnyardgrass (barnyardgrass; POSTEMERGENCE, Rate 50 g/ha): 5 | Plant response rating, Barnyardgrass (barnyardgrass; PREEMERGENCE, Rate 50 g/ha): 6 | Plant response rating (0 to 10 scale), Barnyardgrass (barnyardgrass; PREEMERGENCE, Rate 200 g/ha): 8 | Plant response rating, Barnyardgrass (barnyardgrass; Rate 200 g/ha, POSTEMERGENCE): 9 | Plant response rating, Sorghum (sorghum; POSTEMERGENCE): 70 | Plant response rating (0 to 100), Sorghum (sorghum; POSTEMERGENCE, Rate 2 g/ha): 20 | Plant response rating, Sorghum (sorghum; PREEMERGENCE): 20 | Plant response rating (0 to 100), Sorghum (sorghum; PREEMERGENCE, Rate 2 g/ha): 0 | Plant response rating (0 to 100), Sorghum (sorghum; Rate 8 g/ha, POSTEMERGENCE): 40 | Plant response rating (0 to 100), Sorghum (sorghum; Rate 8 g/ha, PREEMERGENCE): 0 | Plant response rating (0 to 100), Sorghum (sorghum; Rate 31 g/ha, POSTEMERGENCE): 60 | Plant response rating (0 to 100), Sorghum (sorghum; Rate 31 g/ha, PREEMERGENCE): 10 | Plant response rating, Wild oat (wild oat; POSTEMERGENCE): 60 | Plant response rating (0 to 100), Wild oat (wild oat; POSTEMERGENCE, Rate 2 g/ha): 10 | Plant response rating, Wild oat (wild oat; PREEMERGENCE): 30 | Plant response rating (0 to 100), Wild oat (wild oat; PREEMERGENCE, Rate 2 g/ha): 0 | Plant response rating (0 to 100), Wild oat (wild oat; Rate 8 g/ha, POSTEMERGENCE): 30 | Plant response rating (0 to 100), Wild oat (wild oat; Rate 8 g/ha, PREEMERGENCE): 0 | Plant response rating (0 to 100), Wild oat (wild oat; Rate 31 g/ha, POSTEMERGENCE): 40 | Plant response rating (0 to 100), Wild oat (wild oat; Rate 31 g/ha, PREEMERGENCE): 0 | Plant response rating, Sugar beet (sugar beet; POSTEMERGENCE, Rate 50 g/ha): 10 | Plant response rating, Sugar beet (sugar beet; PREEMERGENCE, Rate 50 g/ha): 9 | Plant response rating (0 to 10 scale), Sugar beet (sugar beet; PREEMERGENCE, Rate 200 g/ha): 10 | Plant response rating, Sugar beet (sugar beet; Rate 200 g/ha, POSTEMERGENCE): 10 | Plant response rating, Giant foxtail (giant foxtail; POSTEMERGENCE, Rate 50 g/ha): 6 | Plant response rating, Giant foxtail (giant foxtail; PREEMERGENCE, Rate 50 g/ha): 9 | Plant response rating (0 to 10 scale), Giant foxtail (giant foxtail; PREEMERGENCE, Rate 200 g/ha): 10 | Plant response rating, Giant foxtail (giant foxtail; Rate 200 g/ha, POSTEMERGENCE): 7

Reference: patent publication US6358885B1, “Substituted phenylheterocyclic herbicides” (Mississippi State University, priority 1992, dated 2002)
